# Reference: patent US20230235374A1, “High Throughput Assays for Detecting Translation Readthrough Inducers” (The Trustees of the University of Pennsylvania, priority 2021, published 2023)
# How the values were obtained:
# [1] = system: Stop-POST5 / Stop-PRE6 complex; assay: High throughput translocation assay (proflavin fluorescence, plate reader); assay type: biochemical; conditions: FIG. 17B
# Description: FIGS. 17A, 17B, 17C, and 17D are graphs showing data from the high throughput translocation assay. FIG. 17A is a graph showing a stable prf-fluorescence increase at different G418 concentrations [G418] due to eEF2-dependent conversion of a Stop-PRE6 complex to a Stop-POST6 complex, resulting from the increase in quantum yield of Trp-tRNA(prf). FIG. 17B is a graph showing fluorescence results in FIG. 17A as a function of [G418]. FIG. 17C is a graph showing the kinetics of Stop-PRE6 translocation, measured at 1 μM eEF2 and 2 μM G418. FIG. 17D is a graph showing the kinetics of Trp-PRE6 translocation to Trp-POST6 measured at 0.05 μM of eEF2 in the absence of G418.
# Different proflavin-labeled aa-tRNAs, denoted aa-tRNA(prf)s, were used to monitor the elongation cycle changes by fluorescence change at 511 nm following excitation at 458 nm (Ng et al. PNAS, 118(2) e2020599118, 1-10 (2021)). Binding of Trp-TC(prf) to a Trp-POST5 complex in the presence of eEF2 lead to a biphasic increase, with the first, more rapid phase corresponding to formation of Trp-PRE6, followed by a slower, eEF2-dependent phase corresponding to conversion of Trp-PRE6 into Trp-POST6. The translocation step was monitored using a plate-reader assay for both G418-stimulated readthrough of Stop-POST5 (FIGS. 17A-17C) and cognate elongation of Trp-POST5 (FIG. 17D) by adjustment of [eEF2].
# [2] = system: rRNA fragments I-IV of Stop-POST5; assay: RNaseH fragment assay, Stop-POST5; assay type: binding, shrimp (Artemia salina)
# Method: (§1) RNaseH Fragment Assay. Total RNA was prepared from the ^3H-AzAt photoaffinity labeled ribosome by phenol-chloroform extraction. RNA: DNA duplexes were formed by incubating total RNA (0.2 μM) with an oligonucleotide pair (1 μM of each, sequences shown Table 1), flanking a specific RNA region, in 22.8 μL of water at 95° C. for 2 min, followed by annealing at 50° C. for 30 s and quenching on ice. Six units (1.2 μL) of RNase H (NEB) and 6 μl of 5×RNase H Reaction Buffer were next added to the RNA: DNA duplex and incubated at 37° C. for 1 hour, followed by phenol-chloroform extraction of RNA. The digested RNA was separated on 12% TBE-Urea PAGE gel, and the target band along with the adjacent upper and bottom gels were sliced by a 2 mm gel cutter. The gel slices were crushed and the ^3H labeled rRNA fragment was extracted in water by vigorously shaking at 70° C. for 30 min, or by overnight extraction in elution buffer (0.3M sodium acetate, 0.25% SDS, 1 mM EDTA). The slurry was removed by centrifugation and the eluted ^3H labeled rRNA in the supernatant was quantified. The stoichiometry of AzAt photoincorporation was calculated based on a gel recovery yield of 20±2%, determined using an authentic sample of [^3H]-Gln-tRNA^Gln.
# Testing the functional pertinence of AzAt photolabeling of 18S A1195, 28S-A3093, 28S-A2672, and 28S-2669. An RNAse H fragment assay was employed to determine whether the potential functionally significant sites identified by LASER-seq correspond to ataluren binding sites relevant for termination activity. In this assay, oligonucleotide hybridization, RNase H digestion and polyacrylamide gel electrophoresis (PAGE) were used to determine the stoichiometry of [^3H]-AzAt photoincorporation into the three rRNA fragments that together include the four nucleotides of interest: Fragment I, 18S-A1195; Fragment II, 26S-A3093; Fragment III, 26S-A2669 and 26S-A2672 (Table 5). The separate addition of four potential competitors of AzAt binding (eRF1 alone, the stably bound eRF1.eRF3.GDPNP complex, ataluren, and the ataluren-like TRID GJ072) was used to test how these affected such photoincorporation. These experiments, the results of which are summarized in Table 5, were performed at two different AzAt concentrations. eRF1 and eRF1.eRF3.GDPNP effects were measured using 300 μM AzAt, paralleling the LASER-Seq PAL experiments.
# [3] = system: Small RNAs within Stop-POST5 complex; assay: AzAt photoincorporation into small RNAs (urea-PAGE, RNAse H fragments); assay type: binding, shrimp (Artemia salina)
# Method: FIG. 11 illustrates 8% Urea-PAGE resolution of small RNAs.
# (§2) Photoaffinity labeling with [^3H]-AzAt. Samples in Buffer 4, typically 20 μL, were incubated in the dark (20 min for Stop-POST5 and 80S-IRES complexes, 2 min for release factors) with various concentrations of [^3H]-AzAt at 37° C., transferred to a UV-transparent cuvette which was covered with parafilm to prevent evaporation, and irradiated in a Rayonet photochemical reactor equipped with 300 nm UV lamps for 5 min at room temperature. This was followed by quenching with 2 mM DTT at 37° C. for 5 min under ambient light. The irradiation time gave complete photolysis of the phenyl azide moiety in AzAt. Photolysis was also complete at 5 min in the presence of 1 mM ataluren, ruling out internal filtering effects.
# Stop-POST5 and 80S-IRES complexes. 1 μM solutions of either Stop-POST5 or 80S-S.IRES, determined by A260, were photolabeled by [^3H]-AzAt. The sample was then either directly purified by ultracentrifugation through a sucrose cushion to determine the photoincorporation stoichiometry in the complex, or subjected to phenol/chloroform extraction to determine the photoincorporation stoichiometry in the total RNA. To determine the photoincorporation background arising from incomplete removal of noncovalently bound photolyzed AzAt, AzAt was prephotolysed for 5 min before adding to the complex, followed by the 20 min incubation in dark at 37° C. and subsequent sucrose cushion purification or RNA extraction as described above.
# as §1
# Small RNAs. AzAt photoincorporation into the 4 small RNAs (CrPV-IRES, 5.8S rRNA, 5S rRNA, and tRNA) contained within POST5 was examined by one-dimensional (1D) urea-PAGE analysis, by RNA-Seq, and by RNAse H fragment assay (FIG. 11).
# [4] = Solubility in aqueous medium; assay type: physicochemical
# eRF1 = target: T1, eRF1 (Saccharomyces cerevisiae, UniProt P12385); assay: [3H]-AzAt photoaffinity labeling of isolated eRF1; assay type: binding; conditions: FIG. 2E
# T1 construct: made in house; host or cells: E. coli BL21(DE3) CodonPlus
# T1 sequence (P12385 whole entry): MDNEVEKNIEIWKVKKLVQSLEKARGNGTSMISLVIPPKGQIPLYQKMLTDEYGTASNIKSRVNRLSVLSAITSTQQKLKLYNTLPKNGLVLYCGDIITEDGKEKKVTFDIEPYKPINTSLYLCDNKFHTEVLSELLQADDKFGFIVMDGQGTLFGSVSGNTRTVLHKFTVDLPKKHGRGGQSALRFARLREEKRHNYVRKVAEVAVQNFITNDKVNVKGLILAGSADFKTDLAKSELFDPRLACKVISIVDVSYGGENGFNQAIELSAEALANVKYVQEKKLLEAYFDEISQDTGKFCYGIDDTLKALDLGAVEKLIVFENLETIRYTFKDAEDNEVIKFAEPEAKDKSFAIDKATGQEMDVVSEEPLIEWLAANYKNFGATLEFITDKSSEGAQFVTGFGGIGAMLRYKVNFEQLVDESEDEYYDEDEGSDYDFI
# Method: as §2
# (§3) Photoaffinity labeling of release factors. Solutions containing eRF1 (10 μM), eRF3 (20 μM) and 1 mM GMPPMP were pre-incubated at 37° C. for 2 min to form the ternary complex prior to photolabeling with [^3H]-AzAt. After quenching, reaction mixtures were loaded onto a 4-15% mini protean SDS-PAGE gel for protein separation and isolation. Gel slices containing eRF1 or eRF3, as shown by Coomassie Blue R250 staining, were crushed and the radioactivity was extracted in extraction buffer (50 mM Tris-HCl, 150 mM NaCl, and 0.1 mM EDTA; pH 7.5) by vigorously shaking at 70° C. for 30 min. The data fitting was performed using the software Prism. Labeling results of eRF1 alone and within the eRF1.eRF3.GDPNP complex were fit with a one-site binding model and a two-site binding model, respectively.
# [5] = target: T2, eRF1.eRF3.GDPNP ternary complex (Saccharomyces cerevisiae, UniProt P12385); assay: [3H]-AzAt photoaffinity labeling of eRF1 within ternary complex; assay type: binding; conditions: compared with isolated eRF1, FIG. 2E
# T2 construct: made in house; host or cells: E. coli BL21(DE3) CodonPlus
# T2 sequence (P05453 166-685): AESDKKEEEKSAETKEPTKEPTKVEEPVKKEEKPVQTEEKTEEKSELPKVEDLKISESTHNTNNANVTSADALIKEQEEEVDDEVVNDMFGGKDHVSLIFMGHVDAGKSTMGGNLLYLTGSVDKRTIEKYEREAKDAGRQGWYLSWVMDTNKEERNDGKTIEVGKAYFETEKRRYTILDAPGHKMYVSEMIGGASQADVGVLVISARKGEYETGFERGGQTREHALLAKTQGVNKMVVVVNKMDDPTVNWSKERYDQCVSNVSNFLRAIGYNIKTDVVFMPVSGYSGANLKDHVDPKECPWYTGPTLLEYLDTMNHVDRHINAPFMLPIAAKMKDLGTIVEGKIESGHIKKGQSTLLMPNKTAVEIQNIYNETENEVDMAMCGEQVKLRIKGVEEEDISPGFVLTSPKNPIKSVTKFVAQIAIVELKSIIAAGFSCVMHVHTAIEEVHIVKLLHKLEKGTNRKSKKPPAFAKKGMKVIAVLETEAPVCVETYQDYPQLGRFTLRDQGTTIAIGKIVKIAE
# T2 sequence (P12385 whole entry): as the sequence (P12385 whole entry) above
# Method: as §2, §3
# [6] = Stop-POST5, PAL, 30 μM AzAt, alone or plus Ataluren 500 μM / GJ072 150 μM named as label
# [7] = PAL, 30 μM AzAt, alone or plus competing ligand named as label
smiles,measurement,setting,value
CN[C@@H]1[C@@H](O)[C@@H](O[C@@H]2[C@@H](O)[C@H](O[C@H]3O[C@H]([C@@H](C)O)[C@@H](O)[C@H](O)[C@H]3N)[C@@H](N)C[C@H]2N)OC[C@]1(C)O [G418],"EC50 value, G418-stimulated readthrough translocation",[1],fully consistent with previous determination
COc1cccc(-n2c(SCC(=O)Nc3ccc(F)cc3)nnc2-c2ccccn2)c1 [GJ072],effect on AzAt photoincorporation into Fragment IV (26S A1437/A1438),[2],neither ataluren nor GJ072 reduce labeling at all
same,effect on AzAt photoincorporation into Fragment I (18S-A1195),[2]; Stop-POST5,strongly inhibited
same,effect on AzAt photoincorporation into Fragment II (A3093),[2]; Stop-POST5,stimulated
same,effect on AzAt photoincorporation into Fragment III (A2669/A2672),[2]; Stop-POST5,only weakly inhibited
same,Photoincorporation yields into 18S A1195/ I: 18S 1151-1206,[2]; [6],0.10 ± 0.01 mole %
same,Photoincorporation yields into 26S-A2669:A2672/ III: 26S 2638-2702,[2]; [6],0.07 ± 0.01 mole %
same,Photoincorporation yields into 26S-A3093/ II: 26S 3069-3113,[2]; [6],0.07 ± 0.01 mole %
same,Photoincorporation yields into RNAse H Fragment IV: 26S 1413-1476,[2]; [6],0.019 ± 0.004%
same,Photoincorporation yields into CrPV-IRES nts1-155,"[3]; PAL, 30 μM AzAt, alone (AzAt) or plus competing ligand named as label (Ataluren 500 μM, GJ072 150 μM)",0.51 ± 0.03 mole %
same,Photoincorporation yields into 5S rRNA,[3]; [7],0.15 ± 0.01 mole %
same,Photoincorporation yields into 5.8S rRNA,[3]; [7],0.19 ± 0.07 mole %
same,Photoincorporation yields into CrPV-IRES All,[3]; [7],0.59 ± 0.14 mole %
same,Photoincorporation yields into CrPV-IRES nts156-221,[3]; [7],0.22 ± 0.05 mole %
same,Photoincorporation yields into CrPV-IRES nts222-278,[3]; [7],0.09 ± 0.05 mole %
same,Photoincorporation yields into tRNA^Gln,[3]; [7],0.25 ± 0.03 mole %
same,effect on AzAt labeling of CrPV-IRES fragments 1-155 and 156-221,[3]; RNAse H fragment assay,no clearly significant changes
same,effect on AzAt labeling of small RNAs,[3]; none clearly significant,generally small reductions
same,solubility in aqueous medium,[4],limited solubility
same,effect on AzAt photoincorporation into isolated eRF1,eRF1,substantially inhibited
same,inhibition of AzAt photoincorporation into eRF1 within the ternary complex,[5],less marked
